How the values were obtained:
Aurora kinase A (AURKA) = molecular target: T1, Aurora kinase A (AURKA) (Homo sapiens, UniProt O14965); test: Luciferase assay for AURKA in HeLa LgBit (AURKA-HiBit KI) cell line; type: cell-based; conditions: HeLa LgBit (AURKA-HiBit KI) cells, measured after 12 hours
T1 construct: endogenous in cells; host or cells: HeLa LgBit (AURKA-HiBit KI), CRISPR/Cas9 knock-in at the endogenous AURKA locus
T1 sequence (O14965 1-403): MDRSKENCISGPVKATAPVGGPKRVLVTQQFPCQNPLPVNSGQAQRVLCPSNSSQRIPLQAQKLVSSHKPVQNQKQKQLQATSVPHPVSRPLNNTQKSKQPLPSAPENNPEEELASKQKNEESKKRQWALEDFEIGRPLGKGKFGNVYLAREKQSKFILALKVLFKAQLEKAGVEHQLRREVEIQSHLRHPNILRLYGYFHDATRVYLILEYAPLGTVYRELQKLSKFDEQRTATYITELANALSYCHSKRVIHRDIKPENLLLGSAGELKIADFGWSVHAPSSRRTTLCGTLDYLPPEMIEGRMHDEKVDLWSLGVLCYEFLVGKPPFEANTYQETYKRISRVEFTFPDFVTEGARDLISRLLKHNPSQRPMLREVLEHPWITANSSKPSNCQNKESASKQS
Summary of the method: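 Test compounds (10 nM or 100 nM) added to AURKA-HiBit knock-in HeLa LgBit cells that had been pre-loaded with Endurazine for 2 h following an 18 h culture at 3×10^4 cells. Endogenous AURKA-HiBit level followed by luminescence (470-480 nm), measured after 12 h.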

NCI-H446 cell line = test: Cell viability assay for NCI-H446 cell line; type: cell-based; conditions: Homo sapiens, NCI-H446, 120 h; H446 cells, 5 days culture, EZ-Cytox; read-out: IC50 value (Level)
Summary of the method: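 Viability was measured by absorbance at 450 nm after 4 h with EZ-Cytox, following 5-day exposure of NCI-H446 cells (RPMI 1640, 10% FBS, 37 °C, 5% CO2) to 3-fold serial dilutions from 1000 nM down to 0.15 nM, added 24 h post-seeding.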

luminescence value (Level) (Aurora kinase A (AURKA); 10 nM compound) | luminescence value (Level) (Aurora kinase A (AURKA); 100 nM compound) | Structure (SMILES) | IC50 (NCI-H446 cell line)
A (A is <0.3) | A (A is <0.2) | CN(CC1CCN(c2ccc(NC3CCC(=O)NC3=O)cc2F)CC1)[C@H]1CC[C@H](NC(=O)c2ccc(Nc3ncc(F)c(Nc4ccc(C(=O)Nc5ccccc5Cl)cc4)n3)cc2)CC1 (stereo partly drawn) [Compound 66, N-(2-chlorophenyl)-4-[[2-[4-[[4-[[1-[4-[(2,6-dioxo-3-piperidyl)amino]-2-fluoro-phenyl]-4-piperidyl]methyl-methyl-amino]cyclohexyl]carbamoyl]anilino]-5-fluoro-pyrimidin-4-yl]amino]benzamide] | < 0.05 µM
A (A is <0.3) | A (A is <0.2) | O=C1CCC(c2ccc(N3CCN(CCN4CCC(C(=O)Nc5ccc(Nc6ncc(F)c(Nc7ccc(C(=O)Nc8ccccc8Cl)cc7)n6)cc5)CC4)CC3)cc2)C(=O)N1 (stereo not drawn) [Compound 70, N-(4-((4-((4-((2-chlorophenyl)carbamoyl)phenyl)amino)-5-fluoropyrimidin-2-yl)amino)phenyl)-1-(2-(4-(4-(2,6-dioxopiperidin-3-yl)phenyl)piperazin-1-yl)ethyl)piperidine-4-carboxamide] | 0.05 to 0.1 µM
B (B is 0.3 to 0.5) | A (A is <0.2) | CCC(CN1CCN(c2ccc(C3CCC(=O)NC3=O)cc2)CC1)C1CCN(NC(=O)c2ccc(Nc3ncc(F)c(Nc4ccc(C(=O)Nc5ccccc5Cl)cc4)n3)cc2)CC1 (stereo not drawn) [Compound 72, N-(2-chlorophenyl)-4-((2-((4-((4-(1-(4-(4-(2,6-dioxopiperidin-3-yl)phenyl)piperazin-1-yl)butan-2-yl)piperidin-1-yl)carbamoyl)phenyl)amino)-5-fluoropyrimidin-4-yl)amino)benzamide] | < 0.05 µM
A (A is <0.3) | A (A is <0.2) | O=C1CCC(Nc2ccc(N3CCN(CCN4CCC(NC(=O)c5ccc(Nc6ncc(F)c(Nc7ccc(C(=O)Nc8ccccc8Cl)cc7)n6)cc5)CC4)CC3)cc2)C(=O)N1 (stereo not drawn) [Compound 73, N-(2-chlorophenyl)-4-((2-((4-((1-(2-(4-(4-((2,6-dioxopiperidin-3-yl)amino)phenyl)piperazin-1-yl)ethyl)piperidin-4-yl)carbamoyl)phenyl)amino)-5-fluoropyrimidin-4-yl)amino)benzamide] | 0.1 to 0.15 µM

The remaining lines, values behind:

Structure (SMILES) | luminescence value (Level) (Aurora kinase A (AURKA); 10 nM compound) | luminescence value (Level) (Aurora kinase A (AURKA); 100 nM compound) | IC50 (NCI-H446 cell line)
CC(CN1CCN(c2ccc(C3CCC(=O)NC3=O)cc2)CC1)N1CCC(NC(=O)c2ccc(Nc3ncc(F)c(Nc4ccc(C(=O)Nc5ccccc5Cl)cc4)n3)cc2)CC1 (stereo not drawn) [Compound 67, N-(2-chlorophenyl)-4-((2-((4-((1-(1-(4-(4-(2,6-dioxopiperidin-3-yl)phenyl)piperazin-1-yl)propan-2-yl)piperidin-4-yl)carbamoyl)phenyl)amino)-5-fluoropyrimidin-4-yl)amino)benzamide] | B (B is 0.3 to 0.5) | A (A is <0.2) | 0.1 to 0.15 µM
CN(CC1CCN(c2ccc(NC3CCC(=O)NC3=O)cc2)CC1)[C@H]1CC[C@H](NC(=O)c2ccc(Nc3ncc(F)c(Nc4ccc(C(=O)Nc5ccccc5Cl)cc4)n3)cc2)CC1 (stereo partly drawn) [Compound 69, N-(2-chlorophenyl)-4-((2-((4-(((1r,4r)-4-(((1-(4-((2,6-dioxopiperidin-3-yl)amino)phenyl)piperidin-4-yl)methyl)(methyl)amino)cyclohexyl)carbamoyl)phenyl)amino)-5-fluoropyrimidin-4-yl)amino)benzamide] | A (A is <0.3) | A (A is <0.2) | 0.05 to 0.1 µM
O=C1CCC(c2ccc(N3CCN(CCCN4CCC(NC(=O)c5ccc(Nc6ncc(F)c(Nc7ccc(C(=O)Nc8ccccc8Cl)cc7)n6)cc5)CC4)CC3)cc2)C(=O)N1 (stereo not drawn) [Compound 71, N-(2-chlorophenyl)-4-((2-((4-((1-(3-(4-(4-(2,6-dioxopiperidin-3-yl)phenyl)piperazin-1-yl)propyl)piperidin-4-yl)carbamoyl)phenyl)amino)-5-fluoropyrimidin-4-yl)amino)benzamide] | A (A is <0.3) | A (A is <0.2) | 0.1 to 0.15 µM

Reference: patent publication US20260226071A1, “2, 4-DIANILINOPYRIMIDINE-BASED AURORA-A KINASE SELECTIVE DEGRADATION INDUCING COMPOUNDS” (UPPTHERA, INC., priority 2023, published 2026)
